26 compounds from patent US10988477B2 (Merck Patent GmbH, priority 2018, dated 2021) can be followed below.

In test [1] the target is GCN2 kinase (Homo sapiens, UniProt Q9P2K8). The test can be described thus: GCN2 enzyme inhibition assay (Transcreener ADP2 fluorescence polarization). The note with it: 280 μM ATP. It is filed as biochemical. In outline:
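Run at 25 °C in 25 mM Tris-HCl pH 7.5, 50 mM NaCl, 10 mM MgCl2, 1 mM DTT with 4 nM GCN2, 280 μM ATP and 200 μM (RS)7 peptide; compound (0–8 μM final) preincubated 10 min, reaction 1 h. ADP read by antibody/tracer FP; IC50 and Ki(app) from tight-binding fit.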

For test [2], the target named is intracellular GCN2 (phosphorylation of the GCN2 substrate eIF2α) (Homo sapiens, UniProt Q9P2K8). The test is described as follows: GCN2 cellular inhibition assay (AlphaScreen SureFire P-eIF2α Ser51, borrelidin-treated U2OS cells). It is filed as cell-based. In outline:
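U2OS cells adhered overnight, then treated with compounds (4-fold serial dilutions from 40 μM final) plus borrelidin 10 μM final for 1 h at 37 °C. Lysate eIF2α Ser51 phosphorylation measured by AlphaScreen SureFire. Percent inhibition calculated relative to borrelidin-only wells.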

The mark [3] stands for this setting: compounds of Formula II, 4 nM GCN2 kinase.
The mark [4] stands for this setting: compounds of Formula II, biomarker assay, phosphorylated eIF2α Ser51 in borrelidin-treated U2OS cells.
Where [5] appears, read: Enzyme activity for compounds of Formula IV, Ki(app), 25° C.
Setting [6] is: compounds of Formula IV, biomarker assay, phosphorylated eIF2α Ser51 in borrelidin-treated U2OS cells.

Where two headings read alike, the source gives them in different places.

Chain of GCN2 kinase (Q9P2K8 whole entry): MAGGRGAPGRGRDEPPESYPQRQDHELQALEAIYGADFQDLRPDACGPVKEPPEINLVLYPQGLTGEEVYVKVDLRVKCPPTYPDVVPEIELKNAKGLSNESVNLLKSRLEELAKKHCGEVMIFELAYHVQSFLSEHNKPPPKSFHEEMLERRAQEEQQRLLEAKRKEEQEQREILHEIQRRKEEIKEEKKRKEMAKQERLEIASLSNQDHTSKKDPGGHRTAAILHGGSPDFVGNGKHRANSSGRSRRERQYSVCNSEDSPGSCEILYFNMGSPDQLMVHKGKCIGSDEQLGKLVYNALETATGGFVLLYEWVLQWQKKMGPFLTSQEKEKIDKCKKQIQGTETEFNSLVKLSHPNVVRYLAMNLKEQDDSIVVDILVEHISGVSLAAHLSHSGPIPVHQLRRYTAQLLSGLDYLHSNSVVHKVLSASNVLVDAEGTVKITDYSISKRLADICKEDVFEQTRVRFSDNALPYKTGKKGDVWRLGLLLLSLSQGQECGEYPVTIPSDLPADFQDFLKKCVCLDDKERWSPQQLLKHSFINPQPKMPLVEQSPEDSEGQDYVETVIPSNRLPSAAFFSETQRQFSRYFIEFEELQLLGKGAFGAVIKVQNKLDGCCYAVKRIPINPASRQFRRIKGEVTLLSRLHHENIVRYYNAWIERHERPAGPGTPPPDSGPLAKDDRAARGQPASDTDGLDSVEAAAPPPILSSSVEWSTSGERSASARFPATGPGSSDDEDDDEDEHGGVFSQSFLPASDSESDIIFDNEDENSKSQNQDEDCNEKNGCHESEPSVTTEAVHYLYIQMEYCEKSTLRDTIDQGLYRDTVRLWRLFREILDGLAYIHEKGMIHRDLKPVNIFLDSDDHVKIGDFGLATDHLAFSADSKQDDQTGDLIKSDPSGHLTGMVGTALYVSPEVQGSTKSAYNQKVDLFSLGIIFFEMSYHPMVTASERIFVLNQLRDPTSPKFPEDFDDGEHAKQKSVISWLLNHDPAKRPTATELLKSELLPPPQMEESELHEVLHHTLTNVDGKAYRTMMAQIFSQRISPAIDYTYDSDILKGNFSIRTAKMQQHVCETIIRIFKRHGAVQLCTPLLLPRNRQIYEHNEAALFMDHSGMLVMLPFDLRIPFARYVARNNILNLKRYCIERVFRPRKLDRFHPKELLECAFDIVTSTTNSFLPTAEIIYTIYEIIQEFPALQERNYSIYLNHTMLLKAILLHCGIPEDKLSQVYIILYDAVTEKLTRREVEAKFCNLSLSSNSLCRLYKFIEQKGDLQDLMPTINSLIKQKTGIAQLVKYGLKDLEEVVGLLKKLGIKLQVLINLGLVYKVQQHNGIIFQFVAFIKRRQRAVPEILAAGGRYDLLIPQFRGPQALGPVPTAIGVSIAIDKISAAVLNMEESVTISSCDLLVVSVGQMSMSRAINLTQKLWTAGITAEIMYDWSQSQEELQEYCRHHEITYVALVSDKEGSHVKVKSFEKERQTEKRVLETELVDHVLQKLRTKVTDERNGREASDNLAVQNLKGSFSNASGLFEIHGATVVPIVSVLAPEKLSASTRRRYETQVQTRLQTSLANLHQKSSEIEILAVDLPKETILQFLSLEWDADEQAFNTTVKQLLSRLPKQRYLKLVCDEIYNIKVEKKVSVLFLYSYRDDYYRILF
Chain of intracellular GCN2 (phosphorylation of the GCN2 substrate eIF2α) (Q9P2K8 whole entry): as above

In test [1] (setting [3]), `O=C(NCCO)N1CCCC(c2cc(-c3cnc4ccc(C(F)F)nn34)ncn2)C1` (stereo not shown) [II-178, 3-(6-(6-(difluoromethyl)imidazo[1,2-b]pyridazin-3-yl)pyrimidin-4-yl)-N-(2-hydroxyethyl)piperidine-1-carboxamide] registered a Ki of 10 to 1000 nM. The IC50 (as a rule, the concentration at which inhibition is half-maximal) in test [2] (setting [4]) was 500 to 5000 nM.
For the compound `FC(F)c1ccc2ncc(-c3cc(N4CC5CC(C4)O5)ncn3)n2n1` [II-451, 3-(6-(6-(Difluoromethyl)imidazo[1,2-b]pyridazin-3-yl)pyrimidin-4-yl)-6-oxa-3-azabicyclo[3.1.1]heptane], the Ki in test [1] (setting [3]) lay within 10 to 1000 nM. The compound also returned an IC50 in test [2] (setting [4]) of 500 to 5000 nM.
In test [1] (setting [5]), `FC(F)(F)c1cn2c(-c3nccc(N4CCC(c5c[nH]nc5C(F)(F)F)C4)n3)cnc2cn1` (single isomer, unassigned) [IV-628, 6-(Trifluoromethyl)-3-(4-(3-(3-(trifluoromethyl)-1H-pyrazol-4-yl)pyrrolidin-1-yl)pyrimidin-2-yl)imidazo[1,2-a]pyrazine] registered a Ki of 10 to 100 nM. Further, the IC50 in test [2] (setting [6]) was 500 to 5000 nM.
In the same order, the values of `CCN1CCN(c2ccnc(-c3cnc4cnc(Br)cn34)n2)[C@@H](c2cn[nH]c2)[C@H]1C` (relative stereo) [IV-391, Cis-6-Bromo-3-(4-(4-ethyl-3-methyl-2-(1H-pyrazol-4-yl)piperazin-1-yl)pyrimidin-2-yl)imidazo[1,2-a]pyrazine] are 100 to 1000 nM and 500 to 5000 nM.
Take `CS(=O)(=O)NC[C@@H]1CN(c2cc(-c3cnc4ccc(C5CC5)nn34)ncn2)CCO1` [II-249, (S)—N-((4-(6-(6-Cyclopropylimidazo[1,2-b]pyridazin-3-yl)pyrimidin-4-yl)morpholin-2-yl)methyl)methanesulfonamide]: the Ki in test [1] (setting [3]) was 10 to 1000 nM. The compound also returned an IC50 in test [2] (setting [4]) of 500 to 5000 nM.
In the same order, the values of `CC1C(CNS(C)(=O)=O)C(F)(F)C(C)CN1c1cc(-c2cnc3ccc(C(F)F)nn23)ncn1` (single isomer, unassigned) [II-469, N-((1-(6-(6-(Difluoromethyl)imidazo[1,2-b]pyridazin-3-yl)pyrimidin-4-yl)-4,4-difluoro-2,5-dimethylpiperidin-3-yl)methyl)methanesulfonamide] are 10 to 1000 nM and 500 to 5000 nM.
In the same order, the values of `NS(=O)(=O)N1CC2CCCN(c3cc(-c4cnc5ccc(C(F)F)nn45)ncn3)C2C1` (stereo not shown) [II-335, 1-(6-(6-(Difluoromethyl)imidazo[1,2-b]pyridazin-3-yl)pyrimidin-4-yl)octahydro-6H-pyrrolo[3,4-b]pyridine-6-sulfonamide] are 10 to 1000 nM and more than 5000 nM.
In the same order, the values of `FC(F)(F)c1ccc2ncc(-c3ccnc(N4CCOC(c5cn[nH]c5)C4)c3)n2n1` (single isomer, unassigned) [II-229, 2-(1H-Pyrazol-4-yl)-4-(4-(6-(trifluoromethyl)imidazo[1,2-b]pyridazin-3-yl)pyridin-2-yl)morpholine] are less than 10 nM and less than 500 nM.
As to `Cc1n[nH]cc1[C@H]1C[C@H](O)CN(c2ccnc(-c3cnc4cnc(C(F)(F)F)cn34)n2)C1` [IV-774, (3S,5R)-5-(3-methyl-1H-pyrazol-4-yl)-1-(2-(6-(trifluoromethyl)imidazo[1,2-a]pyrazin-3-yl)pyrimidin-4-yl)piperidin-3-ol], the IC50 was 10 to 1000 nM in test [1] (compounds of Formula IV, 4 nM GCN2 kinase) and more than 5000 nM in test [2] (setting [6]).
For the compound `CC(C)(O)C1CC(c2cn[nH]c2)CN(c2ccnc(-c3cnc4cnc(C(F)(F)F)cn34)n2)C1` (single isomer, unassigned) [IV-683, 2-(5-(1H-Pyrazol-4-yl)-1-(2-(6-(trifluoromethyl)imidazo[1,2-a]pyrazin-3-yl)pyrimidin-4-yl)piperidin-3-yl)propan-2-ol], the Ki in test [1] (setting [5]) lay within 10 to 100 nM. This compound returned an IC50 in test [2] (setting [6]) of 500 to 5000 nM.
Compound `O=C(O)[C@@H]1CCCN(c2cc(-c3cnc4ccc(C(F)(F)F)nn34)ncn2)C1` [II-506, (R)-1-(6-(6-(Trifluoromethyl)imidazo[1,2-b]pyridazin-3-yl)pyrimidin-4-yl)piperidine-3-carboxylic acid] displayed a Ki in test [1] (setting [3]) of 10 to 1000 nM. In test [2] (setting [4]), the IC50 was more than 5000 nM.
In the same order, the values of `[2H]C([2H])([2H])N1CCN(c2cc(-c3cnc4ccc(C(F)F)nn34)ncn2)C(C)C1CNS(C)(=O)=O` (stereo not shown) [II-523, N-((4-(6-(6-(Difluoromethyl)imidazo[1,2-b]pyridazin-3-yl)pyrimidin-4-yl)-3-methyl-1-(methyl-d3)piperazin-2-yl)methyl)methanesulfonamide] are less than 10 nM and less than 500 nM.
`FC(F)c1cn2c(-c3nccc(N4CCC5(CCNCC5)C4)n3)cnc2cn1` [IV-140, 2-(2-(6-(Difluoromethyl)imidazo[1,2-a]pyrazin-3-yl)pyrimidin-4-yl)-2,8-diazaspiro[4.5]decane] came in with a Ki in test [1] (setting [5]) of 100 to 1000 nM. This compound showed an IC50 in test [2] (setting [6]) of more than 5000 nM.
In the same order, the values of `FC(F)c1cn2c(-c3nccc(N4CCCC(c5cccnc5)C4)n3)cnc2cn1` (stereo not shown) [IV-52, 6-(Difluoromethyl)-3-(4-(3-(pyridin-3-yl)piperidin-1-yl)pyrimidin-2-yl)imidazo[1,2-a]pyrazine] are 100 to 1000 nM and more than 5000 nM.
In the same order, the values of `FC(F)(F)c1cn2c(-c3nsc(N4CCOC(c5cn[nH]c5)C4)n3)cnc2cn1` (stereo not shown) [IV-704, 2-(1H-pyrazol-4-yl)-4-(3-(6-(trifluoromethyl)imidazo[1,2-a]pyrazin-3-yl)-1,2,4-thiadiazol-5-yl)morpholine] are 100 to 1000 nM and more than 5000 nM.
Regarding `Cc1nn(C)cc1[C@@H]1CN(c2cc(-c3cnc4ccc(C(F)(F)F)nn34)ncn2)C[C@H](C)O1` [II-759, (2R,6S)-2-(1,3-dimethyl-1H-pyrazol-4-yl)-6-methyl-4-(6-(6-(trifluoromethyl)imidazo[1,2-b]pyridazin-3-yl)pyrimidin-4-yl)morpholine], the values for the IC50 in test [1] (setting [3]) and in test [2] (setting [4]) were 10 to 1000 nM and more than 5000 nM, respectively.
The compound `CC1CN(c2ccnc(-c3cnc4cnc(Br)cn34)n2)CC(c2cn[nH]c2)N1` (single isomer, unassigned) [IV-364, 6-Bromo-3-(4-(3-methyl-5-(1H-pyrazol-4-yl)piperazin-1-yl)pyrimidin-2-yl)imidazo[1,2-a]pyrazine] returned a Ki in test [1] (setting [5]) of 10 to 100 nM. Moreover, the IC50 in test [2] (setting [6]) fell in the range of 500 to 5000 nM.
`CC1CN(c2cc(-c3cnn4ccc(C(F)F)nc34)ccn2)CC(CNS(C)(=O)=O)C1(F)F` (stereo not shown) [III-7, N-[[1-[4-[5-(Difluoromethyl)pyrazolo[1,5-a]pyrimidin-3-yl]-2-pyridyl]-4,4-difluoro-5-methyl-3-piperidyl]methyl]methanesulfonamide] had a Ki in test [1] (compounds of Formula III, 4 nM GCN2 kinase) of less than 10 nM. Besides, the IC50 in test [2] (compounds of Formula III, U2OS cells, 10 μM borrelidin, 1 h, read-out: GCN2 Biomarker (IC50)) lay in the range of 500 to 5000 nM.
In test [1] (setting [3]), `CS(=O)(=O)NC[C@@H]1CN(c2cc(-c3cnc4ccc(C(F)F)nn34)ncn2)C[C@@H](C(F)(F)F)O1` [II-307, N-(((2S,6S)-4-(6-(6-(Difluoromethyl)imidazo[1,2-b]pyridazin-3-yl)pyrimidin-4-yl)-6-(trifluoromethyl)morpholin-2-yl)methyl)methanesulfonamide] registered a Ki of 10 to 1000 nM. The IC50 in test [2] (setting [4]) was 500 to 5000 nM.
Regarding `OCc1cc(C2CCCN(c3ccnc(-c4cnc5cnc(C(F)F)cn45)n3)C2)n[nH]1` (stereo not shown) [IV-93, (3-(1-(2-(6-(Difluoromethyl)imidazo[1,2-a]pyrazin-3-yl)pyrimidin-4-yl)piperidin-3-yl)-1H-pyrazol-5-yl)methanol], the Ki in test [1] (setting [5]) is 100 to 1000 nM. Also, the IC50 in test [2] (setting [6]) is more than 5000 nM.
Take `OCCC1CN(c2cc(-c3cnc4ccc(C(F)F)nn34)ncn2)CCO1` (stereo not shown) [II-498, 2-(4-(6-(6-(Difluoromethyl)imidazo[1,2-b]pyridazin-3-yl)pyrimidin-4-yl)morpholin-2-yl)ethan-1-ol]: in test [1] (setting [3]), the Ki is 10 to 1000 nM. In test [2] (setting [4]), this compound came in with an IC50 of more than 5000 nM.
In the same order, the values of `CC1C(CO)CCCN1c1cc(-c2cnc3ccc(C(F)F)nn23)ncn1` (stereo not shown) [II-373, (1-(6-(6-(Difluoromethyl)imidazo[1,2-b]pyridazin-3-yl)pyrimidin-4-yl)-2-methylpiperidin-3-yl)methanol] are less than 10 nM and 500 to 5000 nM.
In the same order, the values of `NS(=O)(=O)N1CC2(CCCN(c3cc(-c4cnc5ccc(C(F)F)nn45)ncn3)C2)C1` [II-333, 6-(6-(6-(Difluoromethyl)imidazo[1,2-b]pyridazin-3-yl)pyrimidin-4-yl)-2,6-diazaspiro[3.5]nonane-2-sulfonamide] are 10 to 1000 nM and 500 to 5000 nM.
On to `CC1CN(c2ccnc(-c3cnc4cnc(C#N)cn34)n2)C(C)C(c2cn[nH]c2)N1` (stereo not shown) [IV-305, 3-(4-(2,5-Dimethyl-3-(1H-pyrazol-4-yl)piperazin-1-yl)pyrimidin-2-yl)imidazo[1,2-a]pyrazine-6-carbonitrile], for which the Ki in test [1] (setting [5]) is less than 10 nM. Further, in test [2] (setting [6]), the IC50 is 500 to 5000 nM.
In the same order, the values of `CC1C(c2cn[nH]c2)OCCN1c1ccnc(-c2cnc3cnc(Cl)cn23)n1` (single isomer, unassigned) [IV-9, 4-(2-(6-Chloroimidazo[1,2-a]pyrazin-3-yl)pyrimidin-4-yl)-3-methyl-2-(1H-pyrazol-4-yl)morpholine] are less than 10 nM and less than 500 nM.
`O=C1CCN(c2cc(-c3cnc4ccc(C(F)F)nn34)ncn2)CCN1` [II-15, 1-(6-(6-(Difluoromethyl)imidazo[1,2-b]pyridazin-3-yl)pyrimidin-4-yl)-1,4-diazepan-5-one]: the Ki in test [1] (setting [3]) was in the range of 10 to 1000 nM. The compound further came in with a half-inhibitory concentration (IC50) in test [2] (setting [4]) of more than 5000 nM.
